# Data as given in PubChem BioAssay (NCI).
#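 All cell lines were grown in 96-well plates and treated with compound for 48 hours. Here, GI50 denotes the concentration required for 50% inhibition of growth. TGI: total growth inhibition.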
# Tests used:
# Test in all cases: NCI anticancer screen, dose series, 48 h
# 786-0 renal = system: 786-0 renal
# A498 renal = system: A498 renal
# A549 NSCLC = system: A549 NSCLC
# ACHN renal = system: ACHN renal
# BT-549 breast = system: BT-549 breast
# CAKI-1 renal = system: CAKI-1 renal
# CCRF-CEM leukemia = system: CCRF-CEM leukemia
# COLO 205 colon = system: COLO 205 colon
# DU-145 prostate = system: DU-145 prostate
# EKVX NSCLC = system: EKVX NSCLC
# HCC-2998 colon = system: HCC-2998 colon
# HCT-116 colon = system: HCT-116 colon
# HCT-15 colon = system: HCT-15 colon
# HL-60(TB) leukemia = system: HL-60(TB) leukemia
# HOP-62 NSCLC = system: HOP-62 NSCLC
# HOP-92 NSCLC = system: HOP-92 NSCLC
# HS 578T breast = system: HS 578T breast
# HT29 colon = system: HT29 colon
# IGROV1 ovarian = system: IGROV1 ovarian
# K-562 leukemia = system: K-562 leukemia
# KM12 colon = system: KM12 colon
# LOX IMVI melanoma = system: LOX IMVI melanoma
# M14 melanoma = system: M14 melanoma
# MALME-3M melanoma = system: MALME-3M melanoma
# MCF7 breast = system: MCF7 breast
# MDA-MB-231 breast = system: MDA-MB-231 breast
# MDA-MB-435 = system: MDA-MB-435
# MDA-MB-468 breast = system: MDA-MB-468 breast
# MOLT-4 leukemia = system: MOLT-4 leukemia
# NCI-H226 lung = system: NCI-H226 lung
# NCI-H23 lung = system: NCI-H23 lung
# NCI-H460 lung = system: NCI-H460 lung
# NCI-H522 lung = system: NCI-H522 lung
# OVCAR-3 ovarian = system: OVCAR-3 ovarian
# OVCAR-4 ovarian = system: OVCAR-4 ovarian
# OVCAR-5 ovarian = system: OVCAR-5 ovarian
# OVCAR-8 ovarian = system: OVCAR-8 ovarian
# PC-3 prostate = system: PC-3 prostate
# RPMI-8226 leukemia = system: RPMI-8226 leukemia
# RXF 393 renal = system: RXF 393 renal
# SF-268 CNS = system: SF-268 CNS
# SF-295 CNS = system: SF-295 CNS
# SF-539 CNS = system: SF-539 CNS
# SK-MEL-28 melanoma = system: SK-MEL-28 melanoma
# SK-MEL-5 melanoma = system: SK-MEL-5 melanoma
# SK-OV-3 ovarian = system: SK-OV-3 ovarian
# SN12C renal = system: SN12C renal
# SNB-19 CNS = system: SNB-19 CNS
# SNB-75 CNS = system: SNB-75 CNS
# SR leukemia = system: SR leukemia
# SW-620 colon = system: SW-620 colon
# T-47D breast = system: T-47D breast
# TK-10 renal = system: TK-10 renal
# U251 CNS = system: U251 CNS
# UACC-257 melanoma = system: UACC-257 melanoma
# UACC-62 melanoma = system: UACC-62 melanoma
# UO-31 renal = system: UO-31 renal
smiles,measurement,setting,value
CCC(C)(C)c1ccc(OCCCCN2CCN(c3ccncc3)CC2)cc1,GI50,786-0 renal,7.54 µM
same,TGI,786-0 renal,20.1 µM
same,GI50,A498 renal,17.3 µM
same,TGI,A498 renal,31.7 µM
same,GI50,A549 NSCLC,12.5 µM
same,TGI,A549 NSCLC,27.3 µM
same,GI50,ACHN renal,15 µM
same,TGI,ACHN renal,28.3 µM
same,GI50,BT-549 breast,5.79 µM
same,TGI,BT-549 breast,19.2 µM
same,GI50,CAKI-1 renal,13.9 µM
same,TGI,CAKI-1 renal,27.5 µM
same,GI50,CCRF-CEM leukemia,6.07 µM
same,TGI,CCRF-CEM leukemia,37.7 µM
same,GI50,COLO 205 colon,2.14 µM
same,TGI,COLO 205 colon,4.03 µM
same,GI50,DU-145 prostate,13.4 µM
same,TGI,DU-145 prostate,26.7 µM
same,GI50,EKVX NSCLC,7.78 µM
same,TGI,EKVX NSCLC,21.6 µM
same,GI50,HCC-2998 colon,2.29 µM
same,TGI,HCC-2998 colon,5.48 µM
same,GI50,HCT-116 colon,4.65 µM
same,TGI,HCT-116 colon,16.3 µM
same,GI50,HCT-15 colon,2.08 µM
same,TGI,HCT-15 colon,4.82 µM
same,GI50,HL-60(TB) leukemia,1.93 µM
same,TGI,HL-60(TB) leukemia,4.42 µM
same,GI50,HOP-62 NSCLC,12.4 µM
same,TGI,HOP-62 NSCLC,27 µM
same,GI50,HOP-92 NSCLC,1.97 µM
same,TGI,HOP-92 NSCLC,15.6 µM
same,GI50,HS 578T breast,13.8 µM
same,TGI,HS 578T breast,38.8 µM
same,GI50,HT29 colon,3.45 µM
same,TGI,HT29 colon,14 µM
same,GI50,IGROV1 ovarian,13.7 µM
same,TGI,IGROV1 ovarian,27.3 µM
same,GI50,K-562 leukemia,1.98 µM
same,TGI,K-562 leukemia,11.2 µM
same,GI50,KM12 colon,10.8 µM
same,TGI,KM12 colon,24.3 µM
same,GI50,LOX IMVI melanoma,1.9 µM
same,TGI,LOX IMVI melanoma,3.64 µM
same,GI50,M14 melanoma,10.6 µM
same,TGI,M14 melanoma,22.8 µM
same,GI50,MALME-3M melanoma,7.82 µM
same,TGI,MALME-3M melanoma,20.5 µM
same,GI50,MCF7 breast,3.08 µM
same,TGI,MCF7 breast,10.7 µM
same,GI50,MDA-MB-231 breast,11 µM
same,TGI,MDA-MB-231 breast,23.4 µM
same,GI50,MDA-MB-435,8.9 µM
same,TGI,MDA-MB-435,21.1 µM
same,GI50,MDA-MB-468 breast,2.27 µM
same,TGI,MDA-MB-468 breast,5.8 µM
same,GI50,MOLT-4 leukemia,4.63 µM
same,TGI,MOLT-4 leukemia,24.4 µM
same,GI50,NCI-H226 lung,11.5 µM
same,TGI,NCI-H226 lung,25.3 µM
same,GI50,NCI-H23 lung,5.46 µM
same,TGI,NCI-H23 lung,18.4 µM
same,GI50,NCI-H460 lung,10.1 µM
same,TGI,NCI-H460 lung,24 µM
same,GI50,NCI-H522 lung,15.6 µM
same,TGI,NCI-H522 lung,31 µM
same,GI50,OVCAR-3 ovarian,11.2 µM
same,TGI,OVCAR-3 ovarian,24 µM
same,GI50,OVCAR-4 ovarian,11.6 µM
same,TGI,OVCAR-4 ovarian,25 µM
same,GI50,OVCAR-5 ovarian,12.7 µM
same,TGI,OVCAR-5 ovarian,25.2 µM
same,GI50,OVCAR-8 ovarian,14.1 µM
same,TGI,OVCAR-8 ovarian,32 µM
same,GI50,PC-3 prostate,5.29 µM
same,TGI,PC-3 prostate,25.4 µM
same,GI50,RPMI-8226 leukemia,4.59 µM
same,TGI,RPMI-8226 leukemia,24.2 µM
same,GI50,RXF 393 renal,2.77 µM
same,TGI,RXF 393 renal,14.6 µM
same,GI50,SF-268 CNS,15.3 µM
same,TGI,SF-268 CNS,31 µM
same,GI50,SF-295 CNS,4.02 µM
same,TGI,SF-295 CNS,15.3 µM
same,GI50,SF-539 CNS,5.15 µM
same,TGI,SF-539 CNS,18.2 µM
same,GI50,SK-MEL-28 melanoma,7.48 µM
same,TGI,SK-MEL-28 melanoma,20.3 µM
same,GI50,SK-MEL-5 melanoma,6.63 µM
same,TGI,SK-MEL-5 melanoma,19.3 µM
same,GI50,SK-OV-3 ovarian,14.7 µM
same,TGI,SK-OV-3 ovarian,29 µM
same,GI50,SN12C renal,13 µM
same,TGI,SN12C renal,26 µM
same,GI50,SNB-19 CNS,11.3 µM
same,TGI,SNB-19 CNS,23.6 µM
same,GI50,SNB-75 CNS,13.4 µM
same,TGI,SNB-75 CNS,26.6 µM
same,GI50,SR leukemia,3.06 µM
same,TGI,SR leukemia,10.1 µM
same,GI50,SW-620 colon,4.82 µM
same,TGI,SW-620 colon,18.2 µM
same,GI50,T-47D breast,5.27 µM
same,TGI,T-47D breast,22.8 µM
same,GI50,TK-10 renal,15.9 µM
same,TGI,TK-10 renal,29.8 µM
same,GI50,U251 CNS,5.92 µM
same,TGI,U251 CNS,19.4 µM
same,GI50,UACC-257 melanoma,13.4 µM
same,TGI,UACC-257 melanoma,27.5 µM
same,GI50,UACC-62 melanoma,13.5 µM
same,TGI,UACC-62 melanoma,26.4 µM
same,GI50,UO-31 renal,12.2 µM
same,TGI,UO-31 renal,24.7 µM
